Results on one molecule are retold here after publication PMC12658903 (RSC Medicinal Chemistry, 2025).

The subject of the test is SARS-CoV-2 (D614G). The test is classed as cell-based. Conditions: 10 µM.

With `CN(C)C(=O)COC(=O)Cc1ccc(OC(=O)c2ccc(NC(=N)N)cc2)cc1` [Camostat, camostat], the “Percentage of infection inhibition” value is reported as 85%.
